Laboratory results: publication PMC11989107, “Biochemical and Structural Characterization of a Highly Glucose-Tolerant β-Glucosidase from the Termite Reticulitermes perilucifugus” (International Journal of Molecular Sciences, 2025)

Tests used:
RpBgl8 [1] = target: T1, RpBgl8 (Reticulitermes perilucifugus, UniProt A0A7G5VX36); test: pNPG hydrolysis with added glucose; type: biochemical
T1 construct: forward primer encodes MSALKF

RpBgl8 [2] = target: T2, RpBgl8 (Reticulitermes perilucifugus, UniProt A0A7G5VX36, F124W); test: pNPG hydrolysis with added glucose; type: biochemical; conditions: 5 mM pNPG, phosphate buffer pH 7.0, 37 °C, reference of the reduction (no glucose or wild type) not told
T2 construct: forward primer encodes MSALKF
T2 sequence (A0A7G5VX36 entry or part of it F124W): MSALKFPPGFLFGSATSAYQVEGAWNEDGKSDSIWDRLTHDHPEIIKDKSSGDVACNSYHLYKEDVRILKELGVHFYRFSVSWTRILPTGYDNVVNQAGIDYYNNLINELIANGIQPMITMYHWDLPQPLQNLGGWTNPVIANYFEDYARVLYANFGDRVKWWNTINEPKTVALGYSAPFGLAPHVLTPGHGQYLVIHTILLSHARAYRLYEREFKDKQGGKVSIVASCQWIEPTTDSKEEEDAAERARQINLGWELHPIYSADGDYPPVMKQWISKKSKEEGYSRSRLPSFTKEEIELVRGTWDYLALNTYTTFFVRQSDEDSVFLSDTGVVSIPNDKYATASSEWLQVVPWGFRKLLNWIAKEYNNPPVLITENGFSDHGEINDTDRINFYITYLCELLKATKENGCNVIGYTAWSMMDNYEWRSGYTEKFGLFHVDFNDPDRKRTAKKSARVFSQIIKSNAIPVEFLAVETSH

T1 sequence (A0A7G5VX36 entry or part of it): as the sequence (A0A7G5VX36 entry or part of it F124W) above, with W124F counted along it

- activity at 4 M (RpBgl8 [1]): 82%
- % reduction of activity at 4.0 M glucose (RpBgl8 [2]): 54.2%
Structure (SMILES): OC[C@H]1OC(O)[C@H](O)[C@@H](O)[C@@H]1O (some centres unmarked) [glucose]
